Experimental findings from patent publication US10315996B2, “ROR gamma (RORγ) modulators” (LEAD PHARMA HOLDING B.V., priority 2015, dated 2019) are described below.

The target in one assay is T1, RORγ (Homo sapiens, UniProt P51449).
T1 construct: expressed in transfected cells; host or cells: 293FT cells (Invitrogen), expression vector pFN26A (Promega)
T1 sequence (P51449 269-508 limits assumed): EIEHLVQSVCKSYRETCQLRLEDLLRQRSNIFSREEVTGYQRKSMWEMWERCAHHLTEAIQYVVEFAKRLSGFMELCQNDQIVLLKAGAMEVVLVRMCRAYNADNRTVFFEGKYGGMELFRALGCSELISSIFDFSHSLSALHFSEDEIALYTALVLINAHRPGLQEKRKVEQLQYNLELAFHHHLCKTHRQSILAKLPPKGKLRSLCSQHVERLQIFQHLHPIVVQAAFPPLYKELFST
In words: RORγ GAL4 reporter gene assay. The assay is classed as cell-based. The conditions noted are these: inhibition of RORγ activity, GAL4-RORγ-LBD luciferase reporter in 293FT cells, overnight incubation; read-out: mean pIC50 (converted). In a few lines: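 293FT cells were transiently co-transfected with GAL4-DBD–RORγ-LBD (or GAL4-VP16 control) and a 9×UAS luc2P reporter, then plated at 60,000 cells/well. Compound was added at final 0.2% DMSO for 16-24 h at 37 °C, and inhibition was measured by firefly luciferase luminescence.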
(In general: A reporter such as luciferase makes a cellular process visible.)

The test system of assay [1] is IL-17A production in anti-CD3/anti-CD28 stimulated peripheral blood mononuclear cells (PBMCs). Put plainly: Peripheral blood mononuclear cell (PBMC) IL-17 assay. Format: cell-based. As to conditions: Homo sapiens, 120 h, inhibition of IL-17A production, PBMCs isolated from human blood, 5 days incubation, IL-17 ELISA, read-out: mean pIC50 (converted). The method, then: PBMC IL-17 Assay Description
This assay is designed to measure the levels of IL-17A secreted from anti-CD3/anti-CD28 stimulated PBMCs with the aim of measuring RORγ mediated inhibition of IL-17A production.
The assay medium consists of 90% RPMI 1640 (Lonza), 10% heat inactivated fetal bovin serum (FBS, Lonza) and 100 U/mL penicillin/streptomycin solution.
Anti-CD3 antibody (BD Pharmingen) was diluted to 10 μg/ml in PBS (Lonza). 30 μL of 10 μg/ml anti-CD3 solution was added to the inner 60 wells, excluding any negative control wells, of a 96-well cell culture treated U-bottom plate (Greiner). Plates were incubated overnight (16-24 hours) at 37° C. and 5% CO2.
Peripheral blood mononuclear cells were separated from buffy coats (Sanquin) using Ficoll-Paque PREMIUM separation medium (GE Healthcare Life Sciences) according to manufacturer's protocol and re-suspended in assay medium at 37° C.
Test compounds were diluted, starting from a 10 mM dimethylsulfoxide (DMSO) stock solution, to serial dilutions in DMSO at 200× the final test concentration. Subsequently, these solutions were diluted in two dilution steps in assay medium to 10× the final test concentration. The DMSO concentration of the 10× test compound solution was 5%.
Anti-CD28 antibody (BD Pharmingen) was diluted to 20 μg/mL in PBS. The PBMCs were diluted to a concentration of 2.5×10^6 cells/mL in assay medium at 37° C.
For compound screening, the anti-CD3 coated plates were washed three times with PBS, the wells were subsequently aspirated using vacuum. To each screening well 80 μL of the PBMC suspension, 10 μL of the anti-CD28 solution and 10 μL of the 10× test compound solution was added, resulting in the final test concentration with 0.5% DMSO. All outer wells were filled with assay medium to prevent evaporation. Plates were incubated for 5 days at 37° C. and 5% CO2.
After incubation the plates were spun down at 1500 rpm for 4 minutes and the supernatant was collected. Subsequently, the IL-17A levels in the supernatants was determined using an IL-17 ELISA kit (human IL-17 DuoSet, R&D systems) according to manufacturer's protocol.
The half maximum inhibitory concentration ([…]) values for the test compounds were calculated from the IL-17A signal using GraphPad Prism software (GraphPad Software).

With `CC(C)(NC(=O)c1ccc(NC(=O)Cc2ccc(S(=O)(=O)CC3CC3)cc2)cc1)c1ccccc1` [Example 6, 4-[2-(4-cyclopropylmethanesulfonylphenyl)acetamido]-N-(2-phenylpropan-2-yl)benzamide], the IC50 on RORγ is at most 100 nM; in assay [1], at most 1000 nM.
Regarding `CCCN(CC1CC1)C(=O)c1ccc(NC(=O)Cc2ccc(S(=O)(=O)CC3CC3)cc2)cc1` [Example 9, 4-[2-(4-cyclopropylmethanesulfonylphenyl)acetamido]-N-(cyclopropylmethyl)-N-propylbenzamide], the IC50 was at most 100 nM on RORγ and at most 1000 nM in assay [1].
In the same order, the values of `CCN(C(=O)c1ccc(NC(=O)Cc2ccc(S(=O)(=O)NC3CC3)cc2)cc1)c1ccc(C)cc1` [Example 45, 4-{2-[4-(cyclopropylsulfamoyl)phenyl]acetamido}-N-ethyl-N-(4-methylphenyl) benzamide] are at most 10 nM and at most 1000 nM.
Regarding `C[C@H](NC(=O)c1ccc(NC(=O)Cc2ccc(S(=O)(=O)CC3CC3)cc2)cc1)c1ccccc1F` [Example 71, 4-[2-(4-cyclopropylmethanesulfonylphenyl)acetamido]-N-[(1S)-1-(2-fluorophenyl)ethyl]benzamide], the values for the IC50 (on RORγ; in assay [1]) were at most 100 nM and at most 1000 nM, respectively.
For the compound `CCN(C(=O)c1ccc(NC(=O)Cc2ccc(S(=O)(=O)CC3CC3)cc2)cc1)c1ccon1` [Example 103, 4-[2-(4-cyclopropylmethanesulfonylphenyl)acetamido]-N-ethyl-N-(1,2-oxazol-3-yl)benzamide], the IC50 on RORγ was at most 10 nM; in assay [1] it was at most 1000 nM.
